PubChem BioAssay (NCI)
Values joined by “and” are separate entries in the source; they are usually repeats but may differ in a detail not shown here. Equal values may be shown once.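 Results reflect a 48-hour exposure of cells in 96-well plates to compound at five concentrations. GI50 = concentration required for 50% inhibition of growth. TGI is the concentration that stops growth completely.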

Experiments:
Test in all cases: DTP human tumour cell line panel, 48 h
HOP-62 NSCLC = tested on: HOP-62 NSCLC
HCC-2998 colon = tested on: HCC-2998 colon
K-562 leukemia = tested on: K-562 leukemia
SF-268 CNS = tested on: SF-268 CNS
HOP-92 NSCLC = tested on: HOP-92 NSCLC
EKVX NSCLC = tested on: EKVX NSCLC
CCRF-CEM leukemia = tested on: CCRF-CEM leukemia
SNB-75 CNS = tested on: SNB-75 CNS
M14 melanoma = tested on: M14 melanoma
786-0 renal = tested on: 786-0 renal
OVCAR-3 ovarian = tested on: OVCAR-3 ovarian
MOLT-4 leukemia = tested on: MOLT-4 leukemia
OVCAR-8 ovarian = tested on: OVCAR-8 ovarian
SF-295 CNS = tested on: SF-295 CNS
HT29 colon = tested on: HT29 colon
A549 NSCLC = tested on: A549 NSCLC

CC(C)(C)N=CN1C=Cc2nc3ccccc3cc2C1
TGI (HOP-62 NSCLC): > 100 µM | TGI (HCC-2998 colon): > 100 µM | TGI (K-562 leukemia): > 100 µM | TGI (SF-268 CNS): > 100 µM | TGI (HOP-92 NSCLC): > 100 µM | TGI (EKVX NSCLC): > 100 µM | TGI (CCRF-CEM leukemia): > 100 µM | TGI (SNB-75 CNS): > 100 µM | TGI (M14 melanoma): > 100 µM | TGI (786-0 renal): > 100 µM | TGI (OVCAR-3 ovarian): > 100 µM | TGI (MOLT-4 leukemia): > 100 µM | TGI (OVCAR-8 ovarian): > 100 µM | TGI (SF-295 CNS): > 100 µM | TGI (HT29 colon): > 100 µM | TGI (A549 NSCLC): > 100 µM

CCOC1=C2N=C(C(CC)c3ccccc3F)N=C2C(=O)c2ccccc21 (stereo unspecified)
TGI (HOP-62 NSCLC): > 100 µM | TGI (HCC-2998 colon): > 100 µM | TGI (K-562 leukemia): > 100 µM | TGI (SF-268 CNS): > 100 µM | TGI (HOP-92 NSCLC): > 100 µM | TGI (EKVX NSCLC): > 100 µM | TGI (CCRF-CEM leukemia): > 100 µM | TGI (SNB-75 CNS): 47.8 µM | TGI (M14 melanoma): > 100 µM | TGI (786-0 renal): > 100 µM | TGI (OVCAR-3 ovarian): > 100 µM | TGI (MOLT-4 leukemia): > 100 µM | TGI (OVCAR-8 ovarian): > 100 µM | TGI (SF-295 CNS): > 100 µM | TGI (HT29 colon): > 100 µM | TGI (A549 NSCLC): > 100 µM

CC1=CC2C(C=C1)S(=O)(=O)N1CC21c1ccccc1 (stereo unspecified)
TGI (HOP-62 NSCLC): > 100 µM | TGI (HCC-2998 colon): > 100 µM | TGI (K-562 leukemia): > 100 µM | TGI (SF-268 CNS): > 100 µM | TGI (HOP-92 NSCLC): > 100 µM | TGI (CCRF-CEM leukemia): > 100 µM | TGI (SNB-75 CNS): > 100 µM | TGI (M14 melanoma): > 100 µM | TGI (786-0 renal): > 100 µM | TGI (OVCAR-3 ovarian): > 100 µM | TGI (OVCAR-8 ovarian): > 100 µM | TGI (SF-295 CNS): > 100 µM | TGI (HT29 colon): > 100 µM | TGI (A549 NSCLC): > 100 µM

COc1ccc2[nH]c3c(c2c1)[C@H](c1ccccc1)C[C@@H]1C(=O)N(c2ccccc2)C(=O)[C@H]31
TGI (HOP-62 NSCLC): 48.8 µM | TGI (HCC-2998 colon): > 100 µM | TGI (K-562 leukemia): > 100 µM | TGI (SF-268 CNS): > 100 µM | TGI (HOP-92 NSCLC): 76.3 µM | TGI (EKVX NSCLC): > 100 µM | TGI (CCRF-CEM leukemia): 95.2 µM | TGI (SNB-75 CNS): 40.1 µM | TGI (M14 melanoma): > 100 µM | TGI (786-0 renal): 35.3 µM | TGI (OVCAR-3 ovarian): 45.6 µM | TGI (MOLT-4 leukemia): 31.5 µM | TGI (OVCAR-8 ovarian): 17.6 µM | TGI (SF-295 CNS): > 100 µM | TGI (A549 NSCLC): 35.8 µM

CCOC(=O)c1c2ccc(/C=C/c3ccccn3)ccc-2c(C(=O)OCC)c1N
TGI (HCC-2998 colon): > 100 µM | TGI (K-562 leukemia): > 100 µM | TGI (SF-268 CNS): 0.966 µM | TGI (HOP-92 NSCLC): > 100 µM | TGI (EKVX NSCLC): > 100 µM | TGI (CCRF-CEM leukemia): > 100 µM | TGI (SNB-75 CNS): > 100 µM | TGI (M14 melanoma): > 100 µM | TGI (786-0 renal): > 100 µM | TGI (OVCAR-3 ovarian): > 100 µM | TGI (MOLT-4 leukemia): > 100 µM | TGI (SF-295 CNS): > 100 µM | TGI (HT29 colon): > 100 µM | TGI (A549 NSCLC): > 100 µM

COc1cc2c(c(OC)c1OC)-c1ccc(SC)c(=O)cc1[C@@H](NCc1ccc(F)cc1)CC2
TGI (HOP-62 NSCLC): 75 µM and 20.6 µM | TGI (HCC-2998 colon): 11.3 µM | TGI (K-562 leukemia): 75 µM and > 100 µM | TGI (HOP-92 NSCLC): 75 µM and 7.99 µM | GI50 (EKVX NSCLC): < 0.0075 µM | TGI (EKVX NSCLC): 75 µM and > 100 µM | TGI (CCRF-CEM leukemia): 10.2 µM and > 100 µM | TGI (786-0 renal): 16.8 µM and 25 µM | TGI (OVCAR-3 ovarian): < 0.0075 µM | TGI (MOLT-4 leukemia): 75 µM and > 100 µM | TGI (OVCAR-8 ovarian): 75 µM | TGI (SF-295 CNS): 22 µM and > 100 µM | TGI (HT29 colon): < 0.0075 µM | TGI (A549 NSCLC): 75 µM and > 100 µM

N#CC(NNC(=O)Cc1ccccc1)c1cccc(O)c1 (stereo unspecified)
TGI (HOP-62 NSCLC): > 100 µM | TGI (K-562 leukemia): > 100 µM | TGI (SF-268 CNS): > 100 µM | TGI (HOP-92 NSCLC): > 100 µM | TGI (CCRF-CEM leukemia): > 100 µM | TGI (SNB-75 CNS): > 100 µM | TGI (M14 melanoma): > 100 µM | TGI (786-0 renal): > 100 µM | TGI (MOLT-4 leukemia): > 100 µM | TGI (OVCAR-8 ovarian): > 100 µM | TGI (SF-295 CNS): > 100 µM | TGI (HT29 colon): > 100 µM | TGI (A549 NSCLC): > 100 µM

COC(=O)C1CC2C=CC=CC(=O)C2(C)C1 (stereo unspecified)
TGI (HOP-62 NSCLC): > 100 µM | TGI (K-562 leukemia): > 100 µM | TGI (SF-268 CNS): > 100 µM | TGI (EKVX NSCLC): > 100 µM | TGI (CCRF-CEM leukemia): 71.8 µM | TGI (M14 melanoma): 88.5 µM | TGI (786-0 renal): > 100 µM | TGI (OVCAR-3 ovarian): > 100 µM | TGI (MOLT-4 leukemia): > 100 µM | TGI (OVCAR-8 ovarian): > 100 µM | TGI (SF-295 CNS): > 100 µM | TGI (HT29 colon): > 100 µM | TGI (A549 NSCLC): > 100 µM

CC(C)c1cccc(C(C)C)c1NC(=O)C(=O)Cc1nc2ccc([N+](=O)[O-])cc2[nH]c1=O
TGI (HCC-2998 colon): > 100 µM | TGI (K-562 leukemia): > 100 µM | TGI (HOP-92 NSCLC): > 100 µM | TGI (EKVX NSCLC): > 100 µM | TGI (CCRF-CEM leukemia): > 100 µM | TGI (SNB-75 CNS): > 100 µM | TGI (M14 melanoma): > 100 µM | TGI (786-0 renal): > 100 µM | TGI (OVCAR-3 ovarian): > 100 µM | TGI (MOLT-4 leukemia): > 100 µM | TGI (SF-295 CNS): > 100 µM | TGI (HT29 colon): > 100 µM | TGI (A549 NSCLC): > 100 µM

CC1=C(c2nc3ccccc3s2)C(=O)OC1(C)C
TGI (HOP-62 NSCLC): > 100 µM | TGI (HCC-2998 colon): > 100 µM | TGI (K-562 leukemia): > 100 µM | TGI (SF-268 CNS): > 100 µM | TGI (EKVX NSCLC): > 100 µM | TGI (CCRF-CEM leukemia): > 100 µM | TGI (SNB-75 CNS): > 100 µM | TGI (M14 melanoma): > 100 µM | TGI (786-0 renal): > 100 µM | TGI (OVCAR-3 ovarian): > 100 µM | TGI (MOLT-4 leukemia): > 100 µM | TGI (OVCAR-8 ovarian): > 100 µM | TGI (SF-295 CNS): > 100 µM | TGI (HT29 colon): > 100 µM | TGI (A549 NSCLC): > 100 µM

Cc1cc2ncn(-c3nc4ccccc4nc3C(C#N)S(C)(=O)=O)c2cc1C (stereo unspecified)
TGI (HOP-62 NSCLC): > 100 µM | TGI (HCC-2998 colon): > 100 µM | TGI (K-562 leukemia): > 100 µM | TGI (SF-268 CNS): > 100 µM | TGI (EKVX NSCLC): > 100 µM | TGI (CCRF-CEM leukemia): > 100 µM | TGI (SNB-75 CNS): > 100 µM | TGI (M14 melanoma): > 100 µM | TGI (786-0 renal): > 100 µM | TGI (OVCAR-3 ovarian): > 100 µM | TGI (MOLT-4 leukemia): > 100 µM | TGI (OVCAR-8 ovarian): > 100 µM | TGI (A549 NSCLC): > 100 µM

COCC(C)(C)N=CN1Cc2cc3ccccc3nc2C1
TGI (HOP-62 NSCLC): > 100 µM | TGI (K-562 leukemia): > 100 µM | TGI (SF-268 CNS): > 100 µM | TGI (HOP-92 NSCLC): > 100 µM | TGI (EKVX NSCLC): > 100 µM | TGI (CCRF-CEM leukemia): > 100 µM | TGI (SNB-75 CNS): > 100 µM | TGI (M14 melanoma): > 100 µM | TGI (786-0 renal): > 100 µM | TGI (OVCAR-3 ovarian): > 100 µM | TGI (MOLT-4 leukemia): > 100 µM | TGI (OVCAR-8 ovarian): > 100 µM | TGI (SF-295 CNS): > 100 µM | TGI (HT29 colon): > 100 µM | TGI (A549 NSCLC): > 100 µM

CC(=O)Nc1[nH]n(C)c(=O)c1-c1nnc(C)s1
TGI (HOP-62 NSCLC): > 100 µM | TGI (HCC-2998 colon): > 100 µM | TGI (K-562 leukemia): > 100 µM | TGI (SF-268 CNS): > 100 µM | TGI (HOP-92 NSCLC): > 100 µM | TGI (EKVX NSCLC): > 100 µM | TGI (CCRF-CEM leukemia): > 100 µM | TGI (SNB-75 CNS): > 100 µM | TGI (M14 melanoma): > 100 µM | TGI (786-0 renal): > 100 µM | TGI (OVCAR-3 ovarian): > 100 µM | TGI (MOLT-4 leukemia): > 100 µM | TGI (OVCAR-8 ovarian): > 100 µM | TGI (HT29 colon): > 100 µM | TGI (A549 NSCLC): > 100 µM
